Literature values in US20170015852A1, “INK COMPOSITION” (KERACOL LIMITED, priority 2014, published 2017).

Columns and labels:
rats = settings: high doses
human health = settings: toxicological reports; approved food colorants E100, E120, E163

| solubility in ethanol [% w/v] | SMILES | carcinogenicity (rats) | threat to human health (human health) |
| --- | --- | --- | --- |
| 0.79 | O=C1OC2(c3ccccc31)c1cc(I)c(O)c(I)c1Oc1c2cc(I)c(O)c1I [erythrosine] | cause cancer | – |
| – | Cc1c(C(=O)O)c(O)cc2c1C(=O)c1c(O)c([C@@H]3O[C@H](CO)[C@@H](O)[C@H](O)[C@H]3O)c(O)c(O)c1C2=O [carminic acid] | – | pose no threat to human health |
